{"source": "patent US20200397820A1", "about": "“Glycerol Release Promoter” (KOHAKU BIO TECHNOLOGY CO., LTD., priority 2018, published 2020)", "origin": "cited, not measured here", "system": "cultured adipocytes", "conditions": "Patent Literature 10"}
{"smiles": "C[C@@]12C[C@@]3(O)O[C@@H](O1)[C@]1(COC(=O)c4ccccc4)[C@H]3C[C@@]12O[C@@H]1O[C@H](CO)[C@@H](O)[C@H](O)[C@H]1O", "note": "[Paeoniflorin]", "values": [{"measurement": "release of glycerol into the culture medium", "value": "promotes the release of glycerol"}]}
